Values after ≈ are worked out from the molar mass of the structure shown. “Also recorded” adds a separate entry of the source.
Columns and labels:
[1] = Water solubility assay (UV spectrophotometric method); type: physicochemical; settings: aqueous buffer, thermodynamic from solid, water (buffer pH 7.4), stirring 4 h at 37 °C
Procedure: The solubility assay was performed considering the absorptivity of compounds under ultraviolet spectroscopy as described by Schneider et al.[20] Assay wavelength was determined through λmax characteristic of each compound. Saturated aqueous solutions were prepared (0.8–1.0 mg/mL) and kept under stirring for 4 h at 37 °C. The supernatant was filtered in […] filters and transferred to a quartz cuvette (10 mm) for spectra acquisition. Solubility was determined by linear regression used as Excel graph plots, solutions were prepared by dilutions of the original solution in methanol. Data were collected in triplicate and the mean values were used to create the graph plots. The correlation coefficient (R^2) values were between 0.9982 and 1.
The N-sulphonylhydrazone derivatives 5a–h were evaluated for their ability to inhibit both ROCK1 and ROCK2 isoforms by measuring the phosphorylation of the Ulight-RRRSLLE substrate using human recombinant enzymes expressed in Sf9[23] and Sf21^24 cells, respectively. Prior to this assay, we evaluated the solubility of these compounds in water (buffer pH 7.4) to ensure that the inhibition percentages were not influenced by the precipitation of the compounds under test conditions. The enzymatic assay was initially performed at a screening concentration of 3 μM, which is capable of guaranteeing the solubility of most of the compounds, and the obtained results are shown in Table 2.

MDA-MB 231 cells = test: Cell-based scratch assay (cell migration); design: species or system human; settings: 10 or 30 μM, 24 h
Procedure: The human mammary gland/breast epithelial cell line MDA-MB 231 was obtained from the American Type Culture Collection (ATCC® HTB-26™) and this use was approved by the Ethics Committee for Animal Care and Use in Scientific Research from the Federal University of Rio de Janeiro. Cells were routinely grown in RPMI medium containing 10% foetal bovine serum (FBS), 1% L-glutamine and 1% penicillin-streptomycin, in a humidified 5% CO2 atmosphere at 37 °C. Cells were cultured up to 70–100% confluence and then some cultures were treated with the compounds at different concentrations for 24 or 48 h. All cell culture reagents were purchased from Invitrogen (São Paulo, Brazil).
Cells were cultured in 24-well culture plates for 24 h up to 90–100% confluence. Scratched wound lines were created with the help of a 200 μl micropipette tip. […] Images were acquired with an Olympus DP71 digital camera (Olympus, Japan) and the wound area was quantified using Fiji software (based on ImageJ, http://imageJ.nih.gov/ij/) from three different experiments.
The functions of Rho-kinase include the regulation of cellular contraction, motility, morphology, polarity, division, and gene expression. Therefore, we performed a cell-based scratch assay followed by the quantification of the wounded area to analyse whether compounds 5b (LASSBio-2020) and 11 (LASSBio-2065) altered cell migration. […]

melting point: 172 °C
solubility at 4 h [1]: 54 µM (≈ 16.8 µg/mL)
SMILES: O=S(=O)(N/N=C/c1ccccc1)c1cccc2cnccc12 [Compound 5b, (E)-N′-benzylideneisoquinoline-5-sulphonohydrazide]
effect on cell migration (result in words) (MDA-MB 231 cells): inhibited MDA-MB 231 cell migration; also recorded: effective at inhibiting cell migration

Reference: publication PMC6060383, “Synthesis and pharmacological evaluation of novel isoquinoline N-sulphonylhydrazones designed as ROCK inhibitors” (Journal of Enzyme Inhibition and Medicinal Chemistry, 2018)
